# Reference: US20130053435A1, “Methods of Treating Alcohol Intoxication, Alcohol Use Disorders and Alcohol Abuse Which Comprises the Administration of Dihydromyricetin” (priority 2011, published 2013)
# Where two headings read alike, the source gives them in different places.
# Tests used:
# [1] = tested on: benzodiazepine site of GABAARs; test: [3H]flunitrazepam binding in rat cortical membrane homogenates; settings: comparative experiments
# Method: Standard procedures for preparation of rat cortical membranes for radioligand binding assays were conducted as previously described with modifications in speed and number of centrifugation and washes, and buffer compositions. […] Naïve rat cortex was dissected from brain and homogenized in 0.32 M sucrose, 10 mM HEPES buffer (pH 7.4), and centrifuged at 650×g, 4° C. The subsequent supernatant was centrifuged at 150,000×g to collect the desired membrane-containing pellet. The pellet was washed and centrifuged two more times, first using ice-cold water and second using membrane buffer containing 50 mM KH2PO4, 1 mM EDTA, 2 mM benzamidine HCl, 0.5 mM DTT, 0.1 mM benzethonium HCl, 0.01% bacitracin, 0.2 PMSF (pH 7.4), and the resulting pellet was frozen. On the day of binding assay, the pellet was homogenized in assay buffer containing 50 mM KH2PO4, 1 mM EDTA, 200 mM KCl (pH 7.4) and centrifuged, and resuspended in fresh assay buffer to a final protein concentration of 1 mg/ml. […] Specific binding was defined as the total amount bound (zero unlabeled ligand) minus the binding in the presence of 10 μM final concentration flurazepam (Sigma). Data was analyzed with GraphPad Prism 4.0 Software (San Diego, Calif.) to determine IC50 (One-site competition equation) and Hill slope (Sigmoidal Dose-Response equation). Experiments were conducted in triplicate.
# GABAARs [2] = tested on: T1, GABAARs; test: Whole-cell patch-clamp, DGCs in hippocampal slices, acute drug application; assay type: cell-based, rat; settings: comparative experiments, rat hippocampal slices
# T1 construct: DHM-enhanced Itonic; EC50 on GABAAR-mediated Itonic; other: control (vehicle) cultured neurons, DIV14; other: cultured neurons with EtOH exposure/withdrawal (60 mM, 30 min, 24 hr); EtOH-potentiated Itonic; GABAAR-mediated Ito
# Method: (§1) Transverse slices (400 μm) of dorsal hippocampus were obtained with a Vibratome (VT 100, Technical Products International, St. Louis, Mo.) and standard techniques known in the art. Slices were continuously perfused with artificial cerebrospinal fluid (ACSF).
# (§2) Signals were recorded in voltage-clamp mode with a […] amplifier (Molecular Devices, Sunnyvale, Calif.). Whole cell access resistances were in the range of <25 MΩ before electrical compensation by about 70%. During voltage-clamp recordings, access resistance was monitored by measuring the size of the capacitative transient in response to a 5 mV step command and the data were abandoned if changes >20% were encountered. At least 10 min was allowed for equilibration of the pipette solution with the intracellular milieu before commencing mIPSC recordings.
# (§3) Data were analyzed using the Clampfit (Version 9.0, Molecular Devices) and the MiniAnalysis Program (versions 6.0.7, Synaptosoft, Decatur, Ga.).
# (§4) The MiniAnalysis program (Synaptosoft, Decatur, Ga.) was used to analyze mIPSCs. Itonic is the averaged baseline currents of a given recording period. Itonic amplitude was calculated as the difference between the holding currents measured before and after picrotoxin (100 μM) or bicuculline (10 μM). […] Briefly, the recordings were low-pass filtered off-line (Clampfit software) at 2 kHz. The mIPSCs were detected (Mini Analysis Program, version 6.0.7) with threshold criteria of 8 pA amplitude and 20 pA*ms charge transfer. The frequency of mIPSCs was determined from all automatically detected events in a given 100 s recording period. For kinetic analysis, only single event mIPSCs with a stable baseline, sharp rising phase (10 to 90% rise time), and exponential decay were chosen during visual inspection of the recording trace. Double and multiple peak mIPSCs were excluded. At least 100 individual mIPSC events were recorded under each experimental condition. The mIPSC kinetics was obtained from analysis of the averaged chosen single events aligned with half rise time in each cell. Decay time constants were obtained by fitting a double exponential to the falling phase of the averaged mIPSCs. Itonic magnitudes were obtained from the averaged baseline current of a given recording period. Itonic amplitude was calculated as the difference between the holding currents measured before and after the application of picrotoxin (50 μM) or bicuculline (10 μM). […] The investigator performing the recordings and mIPSC analysis was blind to the treatment (vehicle, EtOH, E+D, or D) that the rats received.
# (§5) As performed previously, whole-cell patch-clamp recordings in dentate gyms granule cells (DGCs) from hippocampal slices in vitro were conducted.
# GABAARs [3] = tested on: T2, GABAARs; test: as above; assay type: cell-based, rat; settings: comparative experiments, rat hippocampal slices
# T2 construct: DHM-enhanced mIPSCs; other: control (vehicle) cultured neurons, DIV14; other: cultured neurons with EtOH exposure/withdrawal (60 mM, 30 min, 24 hr); EtOH-potentiated mIPSCs; effect on post-synaptic currents (mIPSCs); other: comparative experiments, rat hippocampal slices
# Method: as §1, §2, §3, §4, §5
# GABAARs [4] = tested on: T3, GABAARs; test: as above; assay type: cell-based, rat; settings: in the presence of 60 mM EtOH, rat hippocampal slices
# T3 construct: other: in the presence of 60 mM EtOH, rat hippocampal; shift of the GABA concentration-response curve
# Method: as §1, §2, §3, §4, §5
# [5] = tested on: EtOH-induced LORR in rats
# Method: See Kakihana R, et al. (1966) Science 154(756):1574-1575). Briefly, after drug injection, rats were placed in the supine position in a V-shaped support. LORR onset time was taken from the endpoint of drug injection (i.p.). LORR duration ended when the animal was able to flip over three times in 30 s. LORR assays were blindly performed. LORR durations were reported as mean (min)±SEM.
# Further LORR assays were conducted as follows.
# Additional pre-treatment and post-treatment experiments were also conducted.
# See Hunkeler, W., et al. (1981) Nature 290:514-516.
# GABAARs [6] = tested on: T1, GABAARs; test: Whole-cell patch-clamp, cultured hippocampal neurons, acute drug application; assay type: cell-based, rat; settings: DHM 1 μM + 10 μM flumazenil
# Method: (§6) Hippocampal neurons from embryonic day 18 rats were prepared by papain dissociation (Worthington Biochemical, Lakewood, N.J.) and cultured in neurobasal medium and B27 supplement (Invitrogen). Cultures were kept at 37° C. in a 5% CO2 humidified incubator as described previously. See Shen, Y., et al. (2011) Mol Pharmacol 79:432-442.
# (§7) Hippocampal neurons from embryonic day 18 SD rats were prepared by papain dissociation (Worthington Biochemical, Lakewood, N.J.) and cultured in neurobasal medium (Invitrogen) and B27 supplement as previously reported. See Stowell J N and Craig A M (1999) Neuron 22(3):525-536. Briefly, embryos were removed from maternal rats anesthetized with isoflurane and euthanized by decapitation. Hippocampus were dissected and placed in Ca^2+- and Mg^2+-free HEPES-buffered Hank's buffered salt solution (pH 7.45). Tissues were dissociated by papain digestion followed by trituration through a Pasteur pipette and papain inhibitor treatment. Cells were pelleted and resuspended in neurobasal medium containing 2% B27 serum-free supplement, 100 U/ml penicillin, 100 μg/ml streptomycin, 0.5 mM glutamine (all from Invitrogen), and 10 μM glutamate (Sigma).
# (§8) Dissociated neurons were then plated at a density of 0.3×10^5 cells/cm^2 onto 12 mm round coverslips in 24-well plates (for patch-clamp recording) and/or at a density of 0.5×10^5 cells/cm^2 in 6-well plates (for Western blot and biotinylation assays) coated with poly-D-lysine (Sigma, 50 μg/ml). Cultures were kept at 37° C. in a 5% CO2 humidified incubator. Thereafter, one third to half of the medium was replaced twice a week with neurobasal culture medium containing 2% B27 supplement, and 0.5 mM glutamine.
# (§9) Control neurons were treated with corresponding vehicle as same procedure as EtOH-treated neurons. The concentration of 60 mM EtOH was selected in view of prior experiments. See Liang J et al (2007). Specifically, the concentration of 60 mM EtOH used to treat cultured neurons was chosen to match blood levels measured in adult rats after intoxication with gavage of 5 g/kg, which produced about 60 mM blood peak plasma [EtOH] lasting for about 2 to 3 hr and induced significant plasticity in GABAARs and tolerance.
# (§10) Then, immediately before electrophysiological recording, cells grown on coverslips were transferred to a perfusion chamber (Warner Instruments) and visualized with an inverted microscope (TE200, Nikon). Whole-cell patch-clamp recordings were obtained from cultured neurons under voltage-clamp mode at room temperature (22-25° C.), at a holding potential of −70 mV. Cells were perfused with an extracellular solution (137 mM NaCl, 5 mM KCl, 2 mM CaCl2, 1 mM MgCl2, 20 mM glucose and 10 mM HEPES (310-320 Osm, pH adjusted to 7.40 with NaOH)). Glass pipettes were filled with the same internal solution as that in slice recordings, with an input resistance of 4-7 MΩ. GABAAR-mediated mIPSCs were recorded using the same pharmacological method as mentioned above. […] Electrical signals were amplified using a Multiclamp 200 B amplifier (Molecular Devices, USA). After establishing the whole-cell configuration, at least 10 min were allowed to elapse before the application of drug to allow the membrane patch to stabilize and exchange of ions between the recording electrode and the cytosol to occur. Data were acquired with pClamp software (Version 10.0, Molecular Devices, USA), digitized at 20 kHz (Digidata 1440A, Molecular Devices), and analyzed using the Clampfit software (Version 10.0, Molecular Devices) and the Mini Analysis Program (versions 6.0.7, Synaptosoft, Decatur, Ga.) using methods known in the art. See Hamann M, et al. (2002) Neuron 33(4):625-633; Stell B M and Mody I (2002) J Neurosci 22(10): RC223; and Liang (2007).
# GABAARs [7] = tested on: T2, GABAARs; test: as above; assay type: cell-based, rat; settings: DHM 1 μM + 10 μM flumazenil
# Method: as §6, §7, §8, §9, §10
smiles,measurement,setting,value
O=c1c(-c2ccc(O)cc2)coc2cc(O)ccc12 [daidzein],binding to GABAARs in [3H]flunitrazepam binding assay,[1],bind GABAARs
"O=c1c(-c2ccc(O)cc2)coc2cc(O[C@@H]3O[C@H](CO)[C@@H](O)[C@H](O)[C@H]3O)ccc12 [daidzin, reference compound]",binding to GABAARs in [3H]flunitrazepam binding assay,[1],bind GABAARs
same,effect on extrasynaptic GABAAR-mediated tonic current (Itonic),GABAARs [2],no effect
same,effect on post-synaptic currents (mIPSCs),GABAARs [3],significantly potentiated
same,block of EtOH potentiation of GABAAR-mediated Itonic and mIPSCs,GABAARs [4],do not
"CCOC(=O)c1ncn2c1CN(C)C(=O)c1cc(F)ccc1-2 [flumazenil, reference compound]",LORR duration,[5]; flumazenil 10 mg/kg + DHM 3 mg/kg + EtOH,56.1 ± 4.6 min
same,LORR duration,[5]; flumazenil 10 mg/kg + DHM 10 mg/kg + EtOH,29.3 ± 4.8 min
same,LORR duration,"[5]; flumazenil 10 mg/kg co-injected with EtOH, no DHM",71.1 ± 4.8 min
same,LORR duration,[5]; flumazenil 30 mg/kg + DHM 3 mg/kg + EtOH,58.2 ± 3.9 min
same,DHM-enhanced Itonic,GABAARs [6],143.0±3.2%
same,DHM-enhanced mIPSCs,GABAARs [7],125.7±3.9%
O=c1c(-c2ccc(O)cc2)coc2cc(O)cc(O)c12 [genistein],binding to GABAARs in [3H]flunitrazepam binding assay,[1],do not bind
O=c1c(O)c(-c2cc(O)c(O)c(O)c2)oc2cc(O)cc(O)c12 [myricetin],binding to GABAARs in [3H]flunitrazepam binding assay,[1],do not bind
O=c1c(-c2ccc(O)cc2)coc2c([C@@H]3O[C@H](CO)[C@@H](O)[C@H](O)[C@H]3O)c(O)ccc12 [puerarin],binding to GABAARs in [3H]flunitrazepam binding assay,[1],do not bind
"O=c1c(O)c(-c2ccc(O)c(O)c2)oc2cc(O)cc(O)c12 [quercetin, reference compound]",binding to GABAARs in [3H]flunitrazepam binding assay,[1],do not bind
same,effect on extrasynaptic GABAAR-mediated tonic current (Itonic),GABAARs [2],no effect
same,effect on post-synaptic currents (mIPSCs),GABAARs [3],no effect
same,block of EtOH potentiation of GABAAR-mediated Itonic and mIPSCs,GABAARs [4],do not
